In test [1] the test system is KB. Kind of test: Cytotoxicity against human KB cells after 48 hrs in presence of exogenous DNA. The test is classed as functional, cell-based.
The subject of a further test is Calf thymus DNA. As to the kind of experiment: Binding affinity to calf thymus DNA. The test is classed as nucleic-acid assay, Bos taurus.
Test [2] concerns KB. Kind of test: Cytotoxicity against human KB cells after 48 hrs. The test is classed as functional, cell-based.

Values after ≈ are worked out from the molar mass of the structure shown.

For one compound, IC50 and Kd results are on record in ChEMBL document CHEMBL1147360, “Conioidines A and B, novel DNA-interacting pyrrolidines from Chamaesaracha conioides” (J Nat Prod, 1993).

As usually defined, the IC50 is the midpoint of a concentration-inhibition curve. The term Kd denotes a measure of binding affinity in units of concentration. A lower Kd goes with a tighter complex.

Take `C/C=C(\C)C(=O)OC(C)CC1CCCN1C(=O)CCCCCCCCC` (stereo not drawn) [CONIOIDINE A]: the IC50 in the test with KB [1] came out at 2.1 µg/mL; in the test on KB [2], 0.67 µg/mL (≈ 1.83 µM). Besides, in the test on Calf thymus DNA, the Kd is 2.8 µM.
